The values that follow are results of earlier work, collected in patent US5013756A, “Catechol derivatives, a process of preparation thereof, and therapeutical compositions containing the same” (priority 1985, dated 1991).

The test system of this data set is guinea pig ileum. The settings on record: histamine relative to LTC 4, molar basis; cited from earlier work.

With `NCCc1c[nH]cn1` [histamine], the “times less active than LTC 4 on a molar basis” value was 200 times.
